Experimental data from patent US20220120736A1, “METHODS AND ASSAYS FOR MODULATING GENE TRANSCRIPTION BY MODULATING CONDENSATES” (Whitehead Institute for Biomedical Research, priority 2018, published 2022).

Key:
Type in all cases: cell-based
[1] = tested on: mutant (Y537S) and mutant (D538G) ER activation domain; assay: Lac array assay in U2OS cells, mutant ER fusions; details: Y537S and D538G mutants, presence versus absence of estrogen
Source text: A Lac binding domain-CFP-ER activation domain (ER) fusion protein, Lac binding domain-CFP-mutant (Y537S) ER activation domain fusion protein, or Lac binding domain-CFP-ER mutant (D538G) activation domain fusion protein was introduced into U2OS cells bearing the Lac operon array. […] Same experimental conditions as FIG. 39.
Constructs were assembled by NEB HIFI cloning in pSV2 mammalian expression vector containing an SV40 promoter driving expression of a CFP-LacI fusion protein. The activation domains and mutant activation domains of […] were fused by the c-terminus to this recombinant protein, joined by the linker sequence […] (SEQ ID NO: 17). U2OS-268 cells containing a stably integrated array of ˜51,000 Lac-repressor binding sites (a gift of the Spector laboratory) were transfected using lipofectamine 3000 (Thermofisher L3000015). 24 hours after transfection, cells were plated on fibronectin-coated glass coverslips. After 24 hours on glass coverslips, cells were fixed for immunofluorescence with a MED1 antibody (Table S4) as described above and imaged, by spinning disk confocal microscopy.

MYC oncogene = assay: Confocal microscopy of MED1 condensates at MYC; details: presence versus absence of estrogen
OCT4 (FKBP-tagged) [2] = target: T1, OCT4 (FKBP-tagged) (Mus musculus, UniProt P20263+Q8C7D2); assay: ChIP-seq after OCT4 degradation in OCT4-FKBP ESCs; details: dTag 24 hours versus DMSO
T1 construct: an ESC line bearing endogenous knock-in of DNA encoding the FKBP protein fused to OCT4; HA (C); endogenous in cells; host or cells: V6.5 mouse ES cells (Med1-mEGFP background), homozygous Oct4-FKBP knock-in
Method: mES were grown to 80% confluence in 2i media. 1% formaldehyde in PBS was used for crosslinking of cells for 15 minutes, followed by quenching with Glycine at a final concentration of 125 mM on ice. Cells were washed with cold PBS and harvested by scraping cells in cold PBS. Collected cells were pelleted at 1000 g for 3 minutes at 4° C., flash frozen in liquid nitrogen and stored at −80° C. All buffers contained freshly prepared cOmplete protease inhibitors (Roche, 11873580001). […] The pellet was resuspended in sonication buffer (20 mM Tris-HCl pH 8.0, 150 mM NaCl, 2 mM EDTA pH 8.0, 0.1% SDS, and 1% Triton X-100, 1 3 protease inhibitors) and then sonicated on a Misonix 3000 sonicator for 10 cycles at 30 s each on ice (18-21 W) with 60 s on ice between cycles. Sonicated lysates were cleared once by centrifugation at 16,000 rcf. for 10 minutes at 4° C. Input material was reserved and the remainder was incubated overnight at 4° C. with magnetic beads bound with antibody (Table S4) to enrich for DNA fragments bound by the indicated factor. […]
ChIP-Seq data were aligned to the mm9 version of the mouse reference genome using bowtie with parameters -k 1 -m 1 -best and -l set to read length. […]

OCT4 (FKBP-tagged) [3] = target: T1, OCT4 (FKBP-tagged); assay: RNA-seq after OCT4 degradation in OCT4-FKBP ESCs; details: dTag 24 hours versus DMSO
Method: RNA-Seq was performed in the indicated cell line with the indicated treatment, and used to determine expressed genes. RNA was isolated by AllPrep Kit (Qiagen 80204) and stranded polyA selected libraries was prepared using the TruSeq Stranded mRNA Library Prep Kit (Illumina, RS-122-2101) according to manufacturer's protocol and single-end sequenced on a Hi-seq 2500 instrument.
The CRISPR/Cas9 system was used to genetically engineer ESC lines. Target-specific oligonucleotides were cloned into a plasmid carrying a codon-optimized version of Cas9 with GFP (gift from R. Jaenisch). The sequences of the DNA targeted (the protospacer adjacent motif is underlined) are listed in the same table. […]
For analysis, raw reads were aligned to the mm9 revision of the mouse reference genome using hisat2 with default parameters. Gene name-level read count quantification was performed with htseq-count with parameters -I gene_id -stranded=reverse -f bam -m intersection-strict and a GTF containing transcript positions from Refseq, downloaded 6/6/18. Normalized counts, normalized fold-changes, and differential expression p values were determined using DEseq2 using the standard workflow and both replicates of each condition.

T1 sequence (P20263 with tags, fused parts or gaps): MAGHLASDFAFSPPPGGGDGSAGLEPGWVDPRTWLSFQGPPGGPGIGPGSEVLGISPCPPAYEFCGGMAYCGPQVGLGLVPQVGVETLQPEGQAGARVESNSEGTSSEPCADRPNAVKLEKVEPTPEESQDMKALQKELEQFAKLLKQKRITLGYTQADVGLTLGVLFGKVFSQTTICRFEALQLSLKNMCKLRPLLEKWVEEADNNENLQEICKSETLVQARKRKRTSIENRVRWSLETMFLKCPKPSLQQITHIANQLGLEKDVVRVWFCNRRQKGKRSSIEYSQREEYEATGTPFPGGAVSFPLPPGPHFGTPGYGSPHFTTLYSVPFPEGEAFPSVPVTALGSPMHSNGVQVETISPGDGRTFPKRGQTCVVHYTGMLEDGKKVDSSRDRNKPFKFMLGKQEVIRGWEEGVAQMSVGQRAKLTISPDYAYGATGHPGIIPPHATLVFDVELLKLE
T1 sequence (Q8C7D2 whole entry, the tested form may be a part): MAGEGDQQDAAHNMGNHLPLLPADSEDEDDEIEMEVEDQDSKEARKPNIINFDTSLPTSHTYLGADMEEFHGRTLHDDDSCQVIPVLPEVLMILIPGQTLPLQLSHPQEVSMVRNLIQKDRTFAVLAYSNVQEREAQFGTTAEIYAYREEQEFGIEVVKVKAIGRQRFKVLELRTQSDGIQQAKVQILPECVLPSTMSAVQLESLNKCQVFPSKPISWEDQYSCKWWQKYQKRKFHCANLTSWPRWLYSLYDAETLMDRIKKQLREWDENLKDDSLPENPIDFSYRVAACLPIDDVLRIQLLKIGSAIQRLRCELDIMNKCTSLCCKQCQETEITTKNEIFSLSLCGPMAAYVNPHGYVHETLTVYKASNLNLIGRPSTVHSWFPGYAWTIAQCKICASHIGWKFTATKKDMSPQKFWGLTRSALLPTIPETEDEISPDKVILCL
T1 sequence (Q3U1J4 whole entry partner, the tested form may be a part): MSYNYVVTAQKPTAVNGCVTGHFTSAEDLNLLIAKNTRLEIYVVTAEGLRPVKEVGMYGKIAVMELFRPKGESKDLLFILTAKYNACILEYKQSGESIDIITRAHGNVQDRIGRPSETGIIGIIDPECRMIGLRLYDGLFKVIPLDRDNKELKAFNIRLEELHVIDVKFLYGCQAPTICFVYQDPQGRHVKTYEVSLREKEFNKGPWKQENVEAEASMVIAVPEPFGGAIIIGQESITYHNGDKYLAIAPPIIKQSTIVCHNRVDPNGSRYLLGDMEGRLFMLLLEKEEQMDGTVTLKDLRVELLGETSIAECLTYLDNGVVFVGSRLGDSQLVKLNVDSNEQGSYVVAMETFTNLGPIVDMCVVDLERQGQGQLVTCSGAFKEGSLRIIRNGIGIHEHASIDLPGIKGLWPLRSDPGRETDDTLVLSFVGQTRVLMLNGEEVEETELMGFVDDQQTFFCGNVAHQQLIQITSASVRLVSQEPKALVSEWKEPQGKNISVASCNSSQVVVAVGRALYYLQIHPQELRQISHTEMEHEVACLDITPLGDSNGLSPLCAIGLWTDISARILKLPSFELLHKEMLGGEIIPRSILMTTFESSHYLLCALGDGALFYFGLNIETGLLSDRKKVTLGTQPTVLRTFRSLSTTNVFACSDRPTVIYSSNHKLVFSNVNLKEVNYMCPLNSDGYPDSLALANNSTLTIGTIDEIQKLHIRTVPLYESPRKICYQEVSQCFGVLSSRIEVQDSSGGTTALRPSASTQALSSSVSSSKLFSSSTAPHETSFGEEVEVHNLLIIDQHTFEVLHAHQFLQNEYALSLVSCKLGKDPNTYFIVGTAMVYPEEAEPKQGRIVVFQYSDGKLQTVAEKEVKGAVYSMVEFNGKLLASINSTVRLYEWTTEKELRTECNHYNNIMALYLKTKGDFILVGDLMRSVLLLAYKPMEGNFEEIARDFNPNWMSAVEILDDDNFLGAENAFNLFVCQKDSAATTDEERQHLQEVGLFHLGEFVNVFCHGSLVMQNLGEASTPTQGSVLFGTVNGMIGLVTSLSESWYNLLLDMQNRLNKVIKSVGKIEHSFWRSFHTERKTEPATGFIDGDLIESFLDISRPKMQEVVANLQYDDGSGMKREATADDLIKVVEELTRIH

Compound | condensate formation, CFP signal of fusion protein [1] | condensate formation, mediator immunofluorescence [1] | MED1 condensate formation at the MYC oncogene (MYC oncogene) | OCT4 and MED1 occupancy at enhancers (SEs versus TEs) (OCT4 (FKBP-tagged) [2]) | expression of SE-driven genes (OCT4 (FKBP-tagged) [3]) | reduction in Nanog mRNA levels (OCT4 (FKBP-tagged) [3]) [%]
C[C@]12CC[C@@H]3c4ccc(O)cc4CC[C@H]3[C@@H]1CC[C@@H]2O [estrogen, B-Estradiol] | did not significantly affect condensate formation | did not significantly affect condensate formation | stimulates MED1 condensate formation at the MYC oncogene | – | – | –
CC[C@H](C(=O)N1CCCC[C@H]1C(=O)O[C@H](CCc1ccc(OC)c(OC)c1)c1ccccc1OCC(=O)NCCCCCCCCNc1ccc2c(c1)C(=O)N(C1CCC(=O)NC1=O)C2=O)c1cc(OC)c(OC)c(OC)c1 (stereo partly drawn) [dTag] | – | – | – | reduction of OCT4 and MEM occupancy at enhancers, with the most profound effects occurring at SEs | concomitantly decreased | 60
